The record followed here is US11613542B2, “Sulfonylureas and sulfonylthioureas as NLRP3 inhibitors” (Inflazome Limited, priority 2017, dated 2023).

Structures can show the parent of a compound that is named as a salt.

In the assay the target is NLRP3 (Homo sapiens, UniProt Q96P20). Description: THP-1 cells pyroptosis assay. In kind it is cell-based. On the set-up: Seed THP-1 cells (25,000 cells/well) containing 1.0 μg/ml LPS; host or cells: THP-1 cells, LPS-primed, nigericin-stimulated. The note with it: THP-1 cells, 1.0 μg/ml LPS, compound 3 hrs, nigericin 5 μM 1 hr, resazurin readout; read-out: THP IC50. An excerpt: NLRP and Pyroptosis It is well established that the activation of NLRP3 leads to cell pyroptosis and this feature plays an important part in the manifestation of clinical disease (Yan-gang Liu et al., Cell Death &Disease, 2017, 8(2), e2579; Alexander Wree et al., Hepatology, 2014, 59(3), 898-910; Alex Baldwin et al., Journal of Medicinal Chemistry, 2016, 59(5), 1691-171; Ema Ozaki et al., Journal of Inflammation Research, 2015, 8, 15-27; Zhen Xie & Gang Zhao, Neuroimmunology Neuroinflammation, 2014, 1(2), 60-65; Mattia Cocco et al., Journal of Medicinal Chemistry, 2014, 57(24), 10366-10382; T. Satoh et al., Cell Death &Disease, 2013, 4, e644). Therefore, it is anticipated that inhibitors of NLRP3 will block pyroptosis, as well as the release of pro-inflammatory cytokines (e.g. […]) from the cell. THP-1 Cells: Culture and Preparation THP-1 cells (ATCC #TIB-202) were grown in RPMI containing L-glutamine (Gibco #11835) supplemented with imM sodium pyruvate (Sigma #S8636) and penicillin (100 units/ml)/streptomycin (0.1 mg/ml) (Sigma #P4333) in 10% Fetal Bovine Serum (FBS) (Sigma #Fo804). The cells were routinely passaged and grown to confluency (˜10^6 cells/ml). On the day of the experiment, THP-1 cells were harvested and resuspended into RPMI medium (without FBS). The cells were then counted and viability (>90%) checked by Trypan blue (Sigma #T8154). Appropriate dilutions were made to give a concentration of 625,000 cells/ml. To this diluted cell solution was added LPS (Sigma #L4524) to give a […] Final Assay Concentration (FAC). 40 μl of the final preparation was aliquoted into each well of a 96-well plate. The plate thus prepared was used for compound screening. THP-1 Cells Pyroptosis Assay The following method step-by-step assay was followed for compound screening. • 1. Seed THP-1 cells (25,000 cells/well) containing 1.0 μg/ml LPS in 40 μl of RPMI medium (without FBS) in 96-well, black walled, clear bottom cell culture plates coated with poly-D-lysine (VWR #734-0317) • 2. Add […] compound (8 points half-log dilution, with 10 μM top dose) or vehicle (DMSO 0.1% FAC) to the appropriate wells • 3. […] Add 5 μl nigericin (Sigma #N7143) (FAC 5 μM) to all wells • 5. […] At the end of the incubation period, spin plates at 300 xg for 3 mins and remove supernatant • 7. Then add 50 μl of resazurin (Sigma #R7017) (FAC 100μ M resazurin in RPMI medium without FBS) and incubate plates for a further 1-2 hrs at 37° C. and 5% CO2 • 8. Plates were read in an Envision reader at Ex 560 nm and Em 590 nm • 9. IC50 data is fitted to a non-linear regression equation (log inhibitor vs response-variable slope 4-parameters) [table]
Sequence of NLRP3 (Q96P20 whole entry): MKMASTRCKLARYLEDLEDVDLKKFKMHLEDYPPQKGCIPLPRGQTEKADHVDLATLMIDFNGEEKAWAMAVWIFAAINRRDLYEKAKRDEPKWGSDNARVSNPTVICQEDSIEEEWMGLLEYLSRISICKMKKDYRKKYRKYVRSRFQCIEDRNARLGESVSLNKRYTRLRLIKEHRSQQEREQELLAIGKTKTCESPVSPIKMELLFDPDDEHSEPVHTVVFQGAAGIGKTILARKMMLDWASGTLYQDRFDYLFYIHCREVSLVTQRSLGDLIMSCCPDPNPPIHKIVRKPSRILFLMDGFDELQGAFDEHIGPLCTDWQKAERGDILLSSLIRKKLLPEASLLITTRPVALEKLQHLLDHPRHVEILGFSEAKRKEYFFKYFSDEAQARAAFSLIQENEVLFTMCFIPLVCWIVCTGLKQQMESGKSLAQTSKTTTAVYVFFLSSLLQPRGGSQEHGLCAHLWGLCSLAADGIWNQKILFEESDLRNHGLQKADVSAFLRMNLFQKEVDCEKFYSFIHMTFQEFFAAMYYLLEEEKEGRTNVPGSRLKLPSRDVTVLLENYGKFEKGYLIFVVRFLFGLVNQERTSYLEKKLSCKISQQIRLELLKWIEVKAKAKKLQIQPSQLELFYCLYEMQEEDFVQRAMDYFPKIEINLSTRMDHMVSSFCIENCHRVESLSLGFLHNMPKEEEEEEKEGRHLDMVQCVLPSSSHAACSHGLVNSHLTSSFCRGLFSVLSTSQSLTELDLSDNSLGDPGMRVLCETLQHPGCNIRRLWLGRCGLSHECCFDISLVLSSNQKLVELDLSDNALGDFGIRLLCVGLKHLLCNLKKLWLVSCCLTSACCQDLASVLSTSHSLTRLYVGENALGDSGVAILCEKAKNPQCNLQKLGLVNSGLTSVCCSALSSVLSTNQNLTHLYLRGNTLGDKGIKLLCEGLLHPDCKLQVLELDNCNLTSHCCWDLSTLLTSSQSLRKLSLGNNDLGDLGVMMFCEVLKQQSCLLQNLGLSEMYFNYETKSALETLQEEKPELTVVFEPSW
Background: Resazurin is reduced to fluorescent resorufin, in cell work by metabolically active cells.
For `CN1CCn2nc(S(=O)(=O)NC(=O)Nc3c4c(cc5c3CCC5)CCC4)cc2C1=O` [Example 5, N-((1,2,3,5,6,7-Hexahydro-s-indacen-4-yl)carbamoyl)-5-methyl-4-oxo-4,5,6,7-tetrahydropyrazolo[1,5-a]pyrazine-2-sulfonamide, sodium salt], the IC50 was < 10 µM.
The same measure for `CC(C)c1cc(F)cc(C(C)C)c1NC(=O)NS(=O)(=O)c1ccn(CCN(C)C)n1` [Example 16, 1-(2-(Dimethylamino)ethyl)-N-((4-fluoro-2,6-diisopropyl-phenyl)carbamoyl)-1H-pyrazole-3-sulfonamide]: < 10 µM; for `O=C(Nc1c2c(cc3c1CCC3)CCC2)NS(=O)(=O)c1ccn(Cc2ncccn2)n1` [Example 22, N-((1,2,3,5,6,7-Hexahydro-s-indacen-4-yl)carbamoyl)-1-(pyrimidin-2-ylmethyl)-1H-pyrazole-3-sulfonamide]: < 2.56 µM.
Regarding `CN1CCC(n2ccc(S(=O)(=O)NC(=O)Nc3c4c(cc5c3CCC5)CCC4)n2)CC1` [Example 31, N-((1,2,3,5,6,7-Hexahydro-s-indacen-4-yl)carbamoyl)-1-(1-methylpiperidin-4-yl)-1H-pyrazole-3-sulfonamide], the IC50 is < 2.56 µM.
The same measure for `CN(C)CCCn1ccc(S(=O)(=O)NC(=O)Nc2c3c(cc4c2CCC4)CCC3)n1` [Example 32, 1-(3-(Dimethylamino)propyl)-N-((1,2,3,5,6,7-hexahydro-s-indacen-4-yl)carbamoyl)-1H-pyrazole-3-sulfonamide]: < 2.56 µM.
Consider `O=C(Nc1c2c(cc3c1CCC3)CCC2)NS(=O)(=O)c1ccn(-c2ccccn2)n1` [Example 119, N-((1,2,3,5,6,7-Hexahydro-s-indacen-4-yl)carbamoyl)-1-(pyridin-2-yl)-1H-pyrazole-3-sulfonamide, sodium salt], for which the IC50 is < 2.56 µM.
The same measure for `O=C(Nc1c2c(cc3c1CCC3)CCC2)NS(=O)(=O)c1ccn(-c2nccs2)n1` [Example 120, N-((1,2,3,5,6,7-Hexahydro-s-indacen-4-yl)carbamoyl)-1-(thiazol-2-yl)-1H-pyrazole-3-sulfonamide, sodium salt]: < 2.56 µM; for `O=C(Nc1c2c(cc3c1CCC3)CCC2)NS(=O)(=O)c1ccn(-c2cccnc2)n1` [Example 121, N-((1,2,3,5,6,7-Hexahydro-s-indacen-4-yl)carbamoyl)-1-(pyridin-3-yl)-1H-pyrazole-3-sulfonamide]: < 2.56 µM; for `CC(C)c1cc(F)cc(C(C)C)c1NC(=O)NS(=O)(=O)c1cc(CN(C)CCO)n(C)n1` [Example 123, N-((4-Fluoro-2,6-diisopropylphenyl)carbamoyl)-5-(((2-hydroxyethyl)(methyl)amino)methyl)-1-methyl-1H-pyrazole-3-sulfonamide]: < 0.64 µM.
With `COCCN(C)Cc1cc(S(=O)(=O)NC(=O)Nc2c(C(C)C)cc(F)cc2C(C)C)nn1C` [Example 125, N-((4-Fluoro-2,6-diisopropylphenyl)carbamoyl)-5-(((2-methoxyethyl)(methyl)amino)methyl)-1-methyl-1H-pyrazole-3-sulfonamide, sodium salt], the concentration for half-maximal inhibition (IC50) is < 2.56 µM.
The same measure for `CC(C)c1cc(Cl)cc(C(C)C)c1NC(=O)NS(=O)(=O)c1cc(CN2CCOCC2)n(C)n1` [Example 127, N-((4-Chloro-2,6-diisopropylphenyl)carbamoyl)-1-methyl-5-(morpholinomethyl)-1H-pyrazole-3-sulfonamide, sodium salt]: < 2.56 µM; for `Cn1nc(S(=O)(=O)NC(=O)Nc2c3c(cc4c2CCC4)CCC3)cc1CN1CCOCC1` [Example 128, N-((1,2,3,5,6,7-Hexahydro-s-indacen-4-yl)carbamoyl)-1-methyl-5-(morpholinomethyl)-1H-pyrazole-3-sulfonamide]: < 2.56 µM; for `CC(C)c1cc(F)cc(C(C)C)c1NC(=O)NS(=O)(=O)c1cc(C(=O)N2CCC2)n(C(C)C)n1` [Example 130, 5-(azetidine-1-carbonyl)-N-((4-fluoro-2,6-diisopropylphenyl)carbamoyl)-1-isopropyl-1H-pyrazole-3-sulfonamide]: < 0.64 µM.
The same measure for `CC(C)c1ccc(-c2cncnc2)cc1NC(=O)NS(=O)(=O)c1cc(C(=O)N(C)C)n(C)n1` [Example 134, 3-(N-((2-Isopropyl-5-(pyrimidin-5-yl)phenyl)carbamoyl)sulfamoyl)-N,N,1-trimethyl-1H-pyrazole-5-carboxamide, sodium salt]: < 2.56 µM.
In the case of `CC(C)c1ccc(-c2cnn(C)c2)cc1NC(=O)NS(=O)(=O)c1cc(C(=O)N(C)C)n(C)n1` [Example 136, 3-(N-((2-Isopropyl-5-(1-methyl-1H-pyrazol-4-yl)phenyl)carbamoyl)sulfamoyl)-N,N,1-trimethyl-1H-pyrazole-5-carboxamide, sodium salt], the IC50 was < 2.56 µM.
For `CC(C)NC(=O)c1cc(S(=O)(=O)NC(=O)Nc2c(C(C)C)cccc2C(C)C)nn1C` [Example 138, 3-(N-((2,6-Diisopropylphenyl)carbamoyl)sulfamoyl)-N-isopropyl-1-methyl-1H-pyrazole-5-carboxamide], the IC50 is < 10 µM.
The same measure for `CC(C)c1cccc(C(C)C)c1NC(=O)NS(=O)(=O)c1cc(C(=O)N(C)CC#N)n(C)n1` [Example 140, N-(Cyanomethyl)-3-(N-((2,6-diisopropylphenyl)carbamoyl)sulfamoyl)-N,1-dimethyl-1H-pyrazole-5-carboxamide]: < 10 µM.
As to `CC(C)NC(=O)c1cc(S(=O)(=O)NC(=O)Nc2c3c(cc4c2CCC4)CCC3)nn1C` [Example 146, 3-(N-((1,2,3,5,6,7-Hexahydro-s-indacen-4-yl)carbamoyl)sulfamoyl)-N-isopropyl-1-methyl-1H-pyrazole-5-carboxamide], the IC50 was < 10 µM.
In the case of `CCN(CC)C(=O)c1cc(S(=O)(=O)NC(=O)Nc2c(C(C)C)cc(F)cc2C(C)C)nn1C` [Example 148, N,N-Diethyl-3-(N-((4-fluoro-2,6-diisopropylphenyl)carbamoyl)sulfamoyl)-1-methyl-1H-pyrazole-5-carboxamide, sodium salt], the IC50 was < 0.64 µM.
Regarding `CCN(CC)C(=O)c1cc(S(=O)(=O)NC(=O)Nc2c(C(C)C)cccc2C(C)C)nn1C` [Example 157, 3-(N-((2,6-Diisopropylphenyl)carbamoyl)sulfamoyl)-N,N-diethyl-1-methyl-1H-pyrazole-5-carboxamide], the IC50 was < 2.56 µM.
As to `Cn1nc(S(=O)(=O)NC(=O)Nc2c3c(cc4c2CCC4)CCC3)cc1C(=O)N1CCCC1` [Example 159, N-((1,2,3,5,6,7-Hexahydro-s-indacen-4-yl)carbamoyl)-1-methyl-5-(pyrrolidine-1-carbonyl)-1H-pyrazole-3-sulfonamide], the IC50 is < 2.56 µM.
The same measure for `Cn1nc(S(=O)(=O)NC(=O)Nc2c3c(cc4c2CCC4)CCC3)cc1C(=O)N1CC(F)C1` [Example 161, 5-(3-Fluoroazetidine-1-carbonyl)-N-((1,2,3,5,6,7-hexahydro-s-indacen-4-yl)carbamoyl)-1-methyl-1H-pyrazole-3-sulfonamide, partial ammonium salt]: < 2.56 µM; for `CC(C)c1cccc(C(C)C)c1NC(=O)NS(=O)(=O)c1cc(C(=O)N2CCCC2)n(C)n1` [Example 163, N-((2,6-Diisopropylphenyl)carbamoyl)-1-methyl-5-(pyrrolidine-1-carbonyl)-1H-pyrazole-3-sulfonamide]: < 2.56 µM.
For the molecule `CNC(=O)c1cc(S(=O)(=O)NC(=O)Nc2c3c(cc4c2CCC4)CCC3)nn1C` [Example 166, 3-(N-((1,2,3,5,6,7-Hexahydro-s-indacen-4-yl)carbamoyl)sulfamoyl)-N,1-dimethyl-1H-pyrazole-5-carboxamide], the IC50 was < 2.56 µM.
The same measure for `CC(C)c1cccc(C(C)C)c1NC(=O)NS(=O)(=O)c1cc(C(=O)N(C)CCO)n(C)n1` [Example 173, 3-(N-((2,6-Diisopropylphenyl)carbamoyl)sulfamoyl)-N-(2-hydroxyethyl)-N,1-dimethyl-1H-pyrazole-5-carboxamide]: < 2.56 µM.

The term IC50 denotes the concentration at which inhibition is half-maximal.
